≈ marks a conversion by molar mass, not a printed value.
Assays:
[1] = Fraction unbound in human plasma
hERG (KCNH2) = hERG (KCNH2) (Homo sapiens, UniProt Q12809); test: in vitro
Description: Inhibition of human ERG at 11 uM by single shot IonWork assay relative to control

[2] = Distribution coefficient, log D of compound at pH 7.4; conditions: octanol/water
[3] = Intrinsic clearance in human liver microsomes
[4] = Solubility of compound in DMSO
[5] = Apparent permeability of the compound across apical side to basolateral side in human Caco2 cells; conditions: Caco-2
[6] = Dissociation constant, pKa of the compound by UV absorbance method; type: physicochemical
[7] = Dissociation constant, pKa of the compound by potentiometric titretion method

Chain of hERG (KCNH2) (Q12809 whole entry): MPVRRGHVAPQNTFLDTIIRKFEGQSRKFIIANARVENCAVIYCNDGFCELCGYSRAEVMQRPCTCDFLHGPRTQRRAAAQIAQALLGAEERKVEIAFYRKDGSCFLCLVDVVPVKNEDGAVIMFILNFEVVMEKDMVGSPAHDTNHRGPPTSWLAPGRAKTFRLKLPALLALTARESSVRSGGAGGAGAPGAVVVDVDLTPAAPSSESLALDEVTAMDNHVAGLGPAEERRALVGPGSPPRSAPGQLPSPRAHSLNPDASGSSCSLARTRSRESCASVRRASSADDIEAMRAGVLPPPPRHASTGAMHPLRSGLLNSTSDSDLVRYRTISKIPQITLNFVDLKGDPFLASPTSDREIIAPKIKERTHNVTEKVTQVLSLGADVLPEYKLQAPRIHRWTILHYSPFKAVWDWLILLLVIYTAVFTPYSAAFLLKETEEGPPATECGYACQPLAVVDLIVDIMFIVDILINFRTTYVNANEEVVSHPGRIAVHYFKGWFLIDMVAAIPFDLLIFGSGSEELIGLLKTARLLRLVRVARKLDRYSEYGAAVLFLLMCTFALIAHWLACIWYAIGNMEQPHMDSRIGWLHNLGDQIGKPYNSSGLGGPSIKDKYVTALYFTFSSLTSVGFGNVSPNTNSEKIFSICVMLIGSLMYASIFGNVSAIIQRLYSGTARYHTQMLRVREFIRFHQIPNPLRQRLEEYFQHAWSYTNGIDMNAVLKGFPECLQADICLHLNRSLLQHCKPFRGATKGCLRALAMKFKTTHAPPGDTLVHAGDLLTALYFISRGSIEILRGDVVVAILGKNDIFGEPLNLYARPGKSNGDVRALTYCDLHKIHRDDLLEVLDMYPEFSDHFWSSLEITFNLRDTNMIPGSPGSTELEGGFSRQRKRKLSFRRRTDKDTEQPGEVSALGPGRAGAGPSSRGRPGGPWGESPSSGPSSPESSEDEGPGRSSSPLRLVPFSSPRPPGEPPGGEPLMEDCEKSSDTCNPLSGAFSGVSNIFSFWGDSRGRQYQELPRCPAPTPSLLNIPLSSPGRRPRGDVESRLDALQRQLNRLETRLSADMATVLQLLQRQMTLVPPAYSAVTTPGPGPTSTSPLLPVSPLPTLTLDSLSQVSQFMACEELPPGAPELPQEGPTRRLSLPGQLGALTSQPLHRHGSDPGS

SMILES	fraction unbound [1]	inhibition at 11 µM (hERG (KCNH2)) [%]	logD [2]	microsomal CLint ([3]; liver microsomes) [µL/min/mg]	solubility [4] [µM]	Papp A→B [5] [×10⁻⁶ cm/s]	pKa [6]	microsomal CLint ([3]; microsomes) [µL/min/mg]	pKa [7]
O=S1(=O)N=C(NCc2ccccc2)c2ccccc21	0.2	2.8	1.9	< 3	89 (≈ 24.2 µg/mL)				
C[C@H](NS1(=O)=NC(=O)c2ccccc21)c1ccccc1 (single isomer, unassigned)	0.089		0.8	< 3	107 (≈ 30.6 µg/mL)	47	6.55		
O=S1(=O)N=C(Nc2ccccc2)c2ccccc21	0.16	11.1	2	85.4	7 (≈ 1.81 µg/mL)				
N=S1(=O)c2ccccc2C(=O)N1c1ccccc1 (stereo not drawn)		-25.6	1.3	93.5	578 (≈ 149 µg/mL)		8.3		
CCN1C(=O)c2ccccc2S1(=O)=O		3.6			< 13	125			
CCN1C(=O)c2ccccc2S1(=N)=O (stereo not drawn)	0.83	-4.7	0.7	< 3	512 (≈ 108 µg/mL)	92	8.9		
C[C@H](N[S@]1(=O)=NC(=O)c2ccccc21)c1ccccc1	0.014		1.4	< 3	13 (≈ 3.72 µg/mL)	63	6.62		
O=C1N=S(=O)(NCc2ccccc2)c2ccccc21 (stereo not drawn)	0.12	-1.9	0.8	< 3	869 (≈ 237 µg/mL)	70.7	6.5		
O=C1NS(=O)(=O)c2ccccc21 [SACCHARIN]	0.37		< -0.1		838 (≈ 154 µg/mL)	< 0.75		< 3	3.1
CCN=S1(=O)NC(=O)c2ccccc21 (stereo not drawn)	0.41	1.3	0.1	< 3	947 (≈ 199 µg/mL)	26.8	6.9		
N=S1(=O)c2ccccc2C(=O)N1Cc1ccccc1 (stereo not drawn)		-7.4	1.8	19.2	946 (≈ 258 µg/mL)	84.7	8.7		
O=C1c2ccccc2S(=O)(=O)N1Cc1ccccc1			-1.8		< 0.01				
O=C1N=S(=O)(Nc2ccccc2)c2ccccc21 (stereo not drawn)	0.088	5.2	-1.1	< 3	958 (≈ 247 µg/mL)	6.57	4.1		
CCNC1=NS(=O)(=O)c2ccccc21	0.56	18.4	0.7	< 3	971 (≈ 204 µg/mL)	29.3	11.7		
NS1(=O)=NC(=O)c2ccccc21 (stereo not drawn)	0.4			< 3			5.7		
NC1=NS(=O)(=O)c2ccccc21	0.48		0.2	< 3	798 (≈ 145 µg/mL)	7.39	11.4		
